Results published in patent US20230312481A1, “SUBSTITUTED (PHTHALAZIN-1-YLMETHYL)UREAS, SUBSTITUTED N-(PHTHALAZIN-1-YLMETHYL)AMIDES, AND ANALOGUES THEREOF” (priority 2020, published 2023).
Where two headings read alike, the source gives them in different places.

System: HBV rcDNA in HepDE19 cells
Assay: HepDE19 assay with bDNA quantitation of HBV rcDNA
Assay type: cell-based, hepatitis B virus
Conditions: read-out: DE-19bDNA EC50
Protocol: HepDE19 Assay With bDNA Quantitation of HBV rcDNA
HepDE19 (50,000 cells/well) were plated in 96-well collagen-coated tissue-culture treated microtiter plates in DMEM/F12 medium supplemented with 10% fetal bovine serum, 1% penicillin-streptomycin and 1 µg/mL tetracycline and incubated in a humidified incubator at 37° C. and 5% CO2 overnight. Next day, the cells were switched to fresh medium without tetracycline and incubated for 4 hours at 37° C. and 5% CO2. […] The final DMSO concentration in the assay was 0.5%. The plates were incubated for 7 days in a humidified incubator at 37° C. and 5% CO2. Following a 7 day-incubation, the level of rcDNA present in the inhibitor-treated wells was measured using a Quantigene 2.0 bDNA assay kit (Affymetrix, Santa Clara, CA) with HBV specific custom probe set and manufacturers instructions. Concurrently, the effect of compounds on cell viability was assessed using replicate plates, plated at a density of 5,000 cells/well and incubated for 4 days, to determine the ATP content as a measure of cell viability using the cell-titer glo reagent (CTG; Promega Corporation, Madison, WI) as per manufacturer’s instructions.
Representative compounds of the disclosure were tested for their abilities to inhibit formation of relaxed circular DNA (rcDNA) in a HepDE19 assay, as described elsewhere herein.

[1] = Hepatitis B virus, HepDE19, 168 h, HepDE19 cells, 7 day incubation, rcDNA measured by Quantigene 2.0 bDNA assay, top concentration 25 µM
[2] = HepDE19 cells, 7 day incubation, rcDNA measured by Quantigene 2.0 bDNA assay, top concentration 25 µM
[3] = Hepatitis B virus, HepDE19, 168 h

| Compound | EC50 [2] [nM] | further results |
| --- | --- | --- |
| CC(c1nn(C)c(=O)c2cc(F)c(F)cc12)N(CCCO)C(=O)Nc1ccc(F)cc1 (racemic) [Compound 26, 1-(1-(6,7-difluoro-3-methyl-4-oxo-3,4-dihydrophthalazin-1-yl)ethyl)-3-(4-fluorophenyl)-1-(3-hydroxypropyl)urea] | – | EC50 [1]: 31 nM |
| CC(c1n[nH]c(=O)c2cc(F)c(F)cc12)N(C)C(=O)c1ccc2c(ccn2C)c1 (single isomer, unassigned) [Compound 107, N-(1-(6,7-difluoro-4-oxo-3,4-dihydrophthalazin-1-yl)ethyl)-N,1-dimethyl-1H-indole-5-carboxamide] | 110 | – |
| CC(c1n[nH]c(=O)c2cc(F)c(F)cc12)N(C)C(=O)c1cc2sccc2[nH]1 (single isomer, unassigned) [Compound 80, N-(1-(6,7-difluoro-4-oxo-3,4-dihydrophthalazin-1-yl)ethyl)-N-methyl-4H-thieno[3,2-b]pyrrole-5-carboxamide] | 14100 | – |
| CC(c1n[nH]c(=O)c2cc(F)c(F)cc12)N(C)C(=O)c1ccc2[nH]ncc2c1 (single isomer, unassigned) [Compound 110, N-(1-(6,7-difluoro-4-oxo-3,4-dihydrophthalazin-1-yl)ethyl)-N-methyl-1H-indazole-5-carboxamide] | > 25000 | – |
| CC(C)CN(C(=O)Nc1ccc(F)c(Cl)c1)C(C)c1n[nH]c(=O)c2ccccc12 (single isomer, unassigned) [Compound 5, 3-(3-chloro-4-fluoro-phenyl)-1-isobutyl-1-[1-(4-oxo-3H-phthalazin-1-yl)ethyl]urea] | 10 | – |
| CC(c1n[nH]c(=O)c2cc(F)c(F)cc12)N(C)C(=O)c1cc(F)c(C(F)F)c(F)c1 (single isomer, unassigned) [Compound 109, N-(1-(6,7-difluoro-4-oxo-3,4-dihydrophthalazin-1-yl)ethyl)-4-(difluoromethyl)-3,5-difluoro-N-methylbenzamide] | 110 | – |
| CC(c1n[nH]c(=O)c2cc(F)c(F)cc12)N(C)C(=O)c1cc(F)c(Cl)c(F)c1 (single isomer, unassigned) [Compound 94, 4-chloro-N-(1-(6,7-difluoro-4-oxo-3,4-dihydrophthalazin-1-yl)ethyl)-3,5-difluoro-N-methylbenzamide] | 13300 | – |
| CC(c1n[nH]c(=O)c2cc(F)c(F)cc12)N(C)C(=O)c1cc2c(F)cccc2[nH]1 (racemic) [Compound 53, N-(1-(6,7-difluoro-4-oxo-3,4-dihydrophthalazin-1-yl)ethyl)-4-fluoro-N-methyl-1H-indole-2-carboxamide] | – | EC50 [1]: 83 nM |
| CC(c1n[nH]c(=O)c2cc(F)c(F)cc12)N(C)C(=O)c1cc(F)c(Cl)c(F)c1 (single isomer, unassigned) [Compound 95, 4-chloro-N-(1-(6,7-difluoro-4-oxo-3,4-dihydrophthalazin-1-yl)ethyl)-3,5-difluoro-N-methylbenzamide] | 80 | – |
| CC(C)CN(C(=O)Nc1ccccc1)C(C)c1n[nH]c(=O)c2cc(F)c(F)cc12 (centres unmarked) [Compound 40, 1-(1-(6,7-difluoro-4-oxo-3,4-dihydrophthalazin-1-yl)ethyl)-1-isobutyl-3-phenylurea] | – | EC50 [3]: 17 nM |
| CC(c1n[nH]c(=O)c2cc(F)c(F)cc12)N(C)C(=O)c1cc2sc(F)cc2[nH]1 (single isomer, unassigned) [Compound 102, N-(1-(6,7-difluoro-4-oxo-3,4-dihydrophthalazin-1-yl)ethyl)-2-fluoro-N-methyl-4H-thieno[3,2-b]pyrrole-5-carboxamide] | 3770 | – |
| CC(c1n[nH]c(=O)c2cc(F)c(F)cc12)N(C)C(=O)Nc1ccc(F)c(Cl)c1 (racemic) [Compound 29, 3-(3-chloro-4-fluorophenyl)-1-(1-(6,7-difluoro-4-oxo-3,4-dihydrophthalazin-1-yl)ethyl)-1-methylurea] | – | EC50 [1]: 23 nM |
| CC(c1n[nH]c(=O)c2cc(F)c(F)cc12)N(C)C(=O)c1cc(F)c(C(F)F)c(F)c1 (single isomer, unassigned) [Compound 108, N-(1-(6,7-difluoro-4-oxo-3,4-dihydrophthalazin-1-yl)ethyl)-4-(difluoromethyl)-3,5-difluoro-N-methylbenzamide] | 9950 | – |
| CC(c1n[nH]c(=O)c2c(F)cccc12)N(C)C(=O)Nc1ccc(F)c(F)c1 (centres unmarked) [Compound 45, 3-(3,4-difluorophenyl)-1-(1-(5-fluoro-4-oxo-3,4-dihydrophthalazin-1-yl)ethyl)-1-methylurea] | – | EC50 [1]: 790 nM |
| CC(c1n[nH]c(=O)c2cc(F)c(F)cc12)N(C)C(=O)c1ccc2ncoc2c1 (single isomer, unassigned) [Compound 90, N-(1-(6,7-difluoro-4-oxo-3,4-dihydrophthalazin-1-yl)ethyl)-N-methylbenzo[d]oxazole-6-carboxamide] | > 25000 | – |
| CC(c1n[nH]c(=O)c2cc(F)c(F)cc12)N(C)C(=O)c1ccc(Br)cc1 (racemic) [Compound 65, 4-bromo-N-(1-(6,7-difluoro-4-oxo-3,4-dihydrophthalazin-1-yl)ethyl)-N-methylbenzamide] | – | EC50 [1]: 60 nM |
| C[C@H](c1n[nH]c(=O)c2cc(F)c(F)cc12)N(C)C(=O)c1cc2c([nH]1)CCCC2 [Compound 58, (R)-N-(1-(6,7-difluoro-4-oxo-3,4-dihydrophthalazin-1-yl)ethyl)-N-methyl-4,5,6,7-tetrahydro-1H-indole-2-carboxamide] | – | EC50 [3]: 120 nM |
| CC(c1n[nH]c(=O)c2cc(F)c(F)cc12)N(C)C(=O)c1ccc2c(c1)CCC2 (single isomer, unassigned) [Compound 82, N-(1-(6,7-difluoro-4-oxo-3,4-dihydrophthalazin-1-yl)ethyl)-N-methyl-2,3-dihydro-1H-indene-5-carboxamide] | 9010 | – |
| CC(c1n[nH]c(=O)c2cc(F)c(F)cc12)N(C)C(=O)Nc1ccc(F)c(C(F)F)c1 (racemic) [Compound 73, 1-(1-(6,7-difluoro-4-oxo-3,4-dihydrophthalazin-1-yl)ethyl)-3-(3-(difluoromethyl)-4-fluorophenyl)-1-methylurea] | – | EC50 [1]: 20 nM |
| CC(c1n[nH]c(=O)c2cc(F)c(F)cc12)N(C)C(=O)c1ccc2ocnc2c1 (single isomer, unassigned) [Compound 88, N-(1-(6,7-difluoro-4-oxo-3,4-dihydrophthalazin-1-yl)ethyl)-N-methylbenzo[d]oxazole-5-carboxamide] | > 25000 | – |
| CC(c1n[nH]c(=O)c2cc(F)c(F)cc12)N(C)C(=O)c1cc(F)c(Br)c(F)c1 (single isomer, unassigned) [Compound 100, 4-bromo-N-(1-(6,7-difluoro-4-oxo-3,4-dihydrophthalazin-1-yl)ethyl)-3,5-difluoro-N-methylbenzamide] | 4690 | – |
| CC(c1n[nH]c(=O)c2cc(F)c(F)cc12)N(C)C(=O)c1ccc2ocnc2c1 (single isomer, unassigned) [Compound 89, N-(1-(6,7-difluoro-4-oxo-3,4-dihydrophthalazin-1-yl)ethyl)-N-methylbenzo[d]oxazole-5-carboxamide] | 2420 | – |
| C[C@H](c1n[nH]c(=O)c2cc(F)c(F)cc12)N(C)C(=O)Nc1ccc(F)c(Cl)c1 (single isomer, unassigned) [Compound 32] | – | EC50 [3]: 21 nM |
| CC(c1n[nH]c(=O)c2cc(F)c(F)cc12)N(C)C(=O)c1cc2c(C(F)F)cc(F)cc2[nH]1 (single isomer, unassigned) [Compound 96, N-(1-(6,7-difluoro-4-oxo-3,4-dihydrophthalazin-1-yl)ethyl)-4-(difluoromethyl)-6-fluoro-N-methyl-1H-indole-2-carboxamide] | 2520 | – |
| CC(c1n[nH]c(=O)c2cc(F)c(F)cc12)N(C)C(=O)c1cc2sccc2[nH]1 (single isomer, unassigned) [Compound 81, N-(1-(6,7-difluoro-4-oxo-3,4-dihydrophthalazin-1-yl)ethyl)-N-methyl-4H-thieno[3,2-b]pyrrole-5-carboxamide] | 110 | – |
| CC(c1n[nH]c(=O)c2cc(F)c(F)cc12)N(C)C(=O)c1ccc2c(ccn2C)c1 (single isomer, unassigned) [Compound 106, N-(1-(6,7-difluoro-4-oxo-3,4-dihydrophthalazin-1-yl)ethyl)-N,1-dimethyl-1H-indole-5-carboxamide] | 4030 | – |
| CC(c1n[nH]c(=O)c2cc(F)c(F)cc12)N(C)C(=O)c1ccc2scnc2c1 (single isomer, unassigned) [Compound 85, N-(1-(6,7-difluoro-4-oxo-3,4-dihydrophthalazin-1-yl)ethyl)-N-methylbenzo[d]thiazole-5-carboxamide] | 2220 | – |
| CC(c1n[nH]c(=O)c2cc(F)c(F)cc12)N(C)C(=O)c1ccc(F)c(Cl)c1 (racemic) [Compound 68, 3-chloro-N-(1-(6,7-difluoro-4-oxo-3,4-dihydrophthalazin-1-yl)ethyl)-4-fluoro-N-methylbenzamide] | – | EC50 [1]: 520 nM |
| CC(c1n[nH]c(=O)c2cc(F)c(F)cc12)N(C)C(=O)Nc1ccc(F)c(C#N)c1 (racemic) [Compound 76, 3-(3-cyano-4-fluorophenyl)-1-(1-(6,7-difluoro-4-oxo-3,4-dihydrophthalazin-1-yl)ethyl)-1-methylurea] | – | EC50 [1]: 40 nM |
